Test results taken from ChEMBL document CHEMBL4257083, “Novel cytochrome p450 inhibitors and their method of use” (2016).

Columns and labels:
[1] = target: T1, Steroid 17-alpha-hydroxylase/17,20 lyase (Homo sapiens, UniProt P05093); experiment: Inhibition of recombinant CYP17 (unknown origin) expressed in human AD293 cells using 21[3H]-17alpha-hydroxyl-pregnenolone as substrate pretreated for 60 mins followed by substrate addition and measured after 4 hrs by Topcount method; type: cell-based
T1 sequence (P05093 whole entry): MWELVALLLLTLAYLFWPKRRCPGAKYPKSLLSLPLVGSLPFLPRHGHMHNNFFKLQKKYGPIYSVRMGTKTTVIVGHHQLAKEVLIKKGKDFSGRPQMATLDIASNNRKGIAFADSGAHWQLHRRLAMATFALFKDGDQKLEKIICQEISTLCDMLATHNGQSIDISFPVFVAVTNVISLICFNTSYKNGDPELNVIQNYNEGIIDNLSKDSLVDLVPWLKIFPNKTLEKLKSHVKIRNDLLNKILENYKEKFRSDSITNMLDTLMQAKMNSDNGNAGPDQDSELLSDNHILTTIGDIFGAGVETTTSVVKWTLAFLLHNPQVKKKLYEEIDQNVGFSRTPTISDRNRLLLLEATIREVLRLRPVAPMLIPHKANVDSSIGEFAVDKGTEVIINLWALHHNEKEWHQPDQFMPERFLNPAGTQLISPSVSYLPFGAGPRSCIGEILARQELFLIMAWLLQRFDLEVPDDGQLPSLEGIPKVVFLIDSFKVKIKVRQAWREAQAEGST

[2] = target: T2, Cytochrome P450 11B1, mitochondrial (Homo sapiens, UniProt P15538); experiment: Inhibition of recombinant CYP11B1 (unknown origin) expressed in human AD293 cells using 11-deoxycortisol as substrate pretreated for 60 mins followed by substrate addition and measured after 12 hrs by LC/MS analysis; type: cell-based
T2 sequence (P15538 whole entry): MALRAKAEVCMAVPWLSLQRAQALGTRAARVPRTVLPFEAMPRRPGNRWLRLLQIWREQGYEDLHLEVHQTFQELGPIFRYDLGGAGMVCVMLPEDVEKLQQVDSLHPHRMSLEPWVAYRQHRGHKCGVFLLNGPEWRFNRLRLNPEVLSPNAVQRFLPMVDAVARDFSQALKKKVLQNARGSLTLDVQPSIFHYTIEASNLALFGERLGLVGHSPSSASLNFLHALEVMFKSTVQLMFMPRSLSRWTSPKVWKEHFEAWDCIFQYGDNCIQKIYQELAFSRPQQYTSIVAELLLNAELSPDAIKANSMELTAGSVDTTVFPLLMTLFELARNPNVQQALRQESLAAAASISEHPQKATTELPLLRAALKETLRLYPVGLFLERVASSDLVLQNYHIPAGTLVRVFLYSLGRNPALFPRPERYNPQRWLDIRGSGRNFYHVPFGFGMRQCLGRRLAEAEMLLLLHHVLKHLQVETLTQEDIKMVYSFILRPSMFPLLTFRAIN

[3] = target: T3, Steroid 21-hydroxylase (Homo sapiens, UniProt P08686); experiment: Inhibition of recombinant CYP21 (unknown origin) expressed in human AD293 cells using 17alpha-hydroxyprogesterone as substrate pretreated for 60 mins followed by substrate addition and measured after 45 mins by LC/MS analysis; type: cell-based
T3 sequence (P08686 whole entry): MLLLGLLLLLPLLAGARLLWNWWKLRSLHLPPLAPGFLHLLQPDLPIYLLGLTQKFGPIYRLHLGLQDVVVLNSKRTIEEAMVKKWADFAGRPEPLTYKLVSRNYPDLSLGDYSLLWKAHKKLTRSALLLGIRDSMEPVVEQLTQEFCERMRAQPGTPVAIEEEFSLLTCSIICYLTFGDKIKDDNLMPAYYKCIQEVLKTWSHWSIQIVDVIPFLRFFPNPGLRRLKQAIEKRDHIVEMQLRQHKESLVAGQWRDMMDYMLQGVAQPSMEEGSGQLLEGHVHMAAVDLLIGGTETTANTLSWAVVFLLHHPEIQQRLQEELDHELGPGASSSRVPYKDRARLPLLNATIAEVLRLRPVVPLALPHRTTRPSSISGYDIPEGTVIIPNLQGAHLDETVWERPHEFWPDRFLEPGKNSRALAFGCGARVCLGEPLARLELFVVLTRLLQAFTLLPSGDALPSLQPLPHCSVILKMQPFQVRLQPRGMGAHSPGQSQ

[4] = Tmax in guinea pig at 10 mg/kg, po; type: ADME, organism-based, Cavia porcellus; conditions: in vivo
[5] = Oral bioavailability in guinea pig at 10 mg/kg; type: ADME, organism-based, Cavia porcellus; conditions: in vivo

Compound | IC50 [1] | IC50 [2] | IC50 [3] | Tmax [4] | bioavailability [5] | F [5]
CCS(=O)(=O)N1CCN(c2ccc(/C=C/c3cc(F)cc(-c4ccncc4)c3)cc2)CC1 |  |  |  | 5.33 h | 22.3% | 
CS(=O)(=O)N1CCN(c2ccc(/C=C/c3cc(Cl)cc(Cn4ccnc4)c3)cc2)CC1 | 180 nM | 24 nM | 2200 nM |  |  | 
CS(=O)(=O)N1CCN(c2ccc(/C=C/c3cc(F)cc(-c4ccncc4)c3)cc2)CC1 | 5 nM | 200 nM | 740 nM |  |  | 
N=C(N)N1CCN(c2ccc(/C=C/c3cc(F)cc(Cn4ccnc4)c3)cc2)CC1 | 1200 nM | 1400 nM | ≥ 10000 nM |  |  | 
O=S(=O)(C1CC1)N1CCN(c2ccc(/C=C/c3cc(F)cc(-c4ccncc4)c3)cc2)CC1 |  |  |  | 8 h |  | 
CC(C)S(=O)(=O)N1CCN(c2ccc(/C=C/c3cc(Cl)cc(-c4ccncc4)c3)cc2)CC1 | 5 nM | 58 nM | 565 nM |  |  | 
CC(C)S(=O)(=O)N1CCN(c2ccc(/C=C/c3cc(F)cc(Cn4ccnc4)c3)cc2)CC1 | 39 nM | 5 nM | 700 nM |  |  | 
O=S(=O)(C1CC1)N1CCN(c2ccc(/C=C/c3cc(Cl)cc(Cn4ccnc4)c3)cc2)CC1 |  | 22 nM | 340 nM |  |  | 
N=C(N)N1CCN(c2ccc(/C=C/c3cc(Cl)cc(Cn4ccnc4)c3)cc2)CC1 | 2500 nM | 1300 nM | ≥ 10000 nM |  |  | 
N=C(N)N1CCN(c2ccc(/C=C/c3cc(F)cc(-c4ccncc4)c3)cc2)CC1 | 18 nM | 3600 nM | ≥ 10000 nM |  |  | 
O=S(=O)(C1CC1)N1CCN(c2ccc(/C=C/c3cc(Cl)cc(-c4ccncc4)c3)cc2)CC1 | 5 nM | 51 nM | 416 nM |  |  | 
Clc1cc(/C=C/c2ccc(N3CCN(C4=NCCO4)CC3)cc2)cc(Cn2ccnc2)c1 | 100 nM | 130 nM | 3500 nM |  |  | 
Fc1cc(/C=C/c2ccc(N3CCN(C4=NCCO4)CC3)cc2)cc(Cn2ccnc2)c1 | 117 nM | 130 nM | ≥ 10000 nM |  |  | 
Fc1cc(/C=C/c2ccc(N3CCN(C4=NCCO4)CC3)cc2)cc(-c2ccncc2)c1 | 5 nM | 1800 nM | 1200 nM |  |  | 
CC(C)S(=O)(=O)N1CCN(c2ccc(/C=C/c3cc(Cl)cc(Cn4ccnc4)c3)cc2)CC1 | 38 nM | 240 nM | 85 nM |  |  | 
CC(=O)N1CCN(c2ccc(CCc3cc(F)cc(-c4ccncc4)c3)cc2)CC1 | 21 nM | 1.4 nM | ≥ 10000 nM |  |  | 
CC(=O)N1CCN(c2ccc(/C=C/c3cc(O)cc(Cn4ccnc4)c3)cc2)CC1 | 88 nM | 51 nM | 2400 nM |  |  | 
O=S(=O)(CCCCl)N1CCN(c2ccc(/C=C/c3cc(Cl)cc(Cn4ccnc4)c3)cc2)CC1 | 31 nM | 13 nM | 2870 nM |  |  | 
O=[N+]([O-])c1cccc(S(=O)(=O)N2CCN(c3ccc(/C=C/c4cc(Cl)cc(Cn5ccnc5)c4)cc3)CC2)c1 | 9 nM | 4 nM | 160 nM |  |  | 
O=[N+]([O-])c1cc(S(=O)(=O)N2CCN(c3ccc(/C=C/c4cc(Cl)cc(Cn5ccnc5)c4)cc3)CC2)ccc1Cl | 106 nM | 57 nM | ≥ 10000 nM |  |  | 
O=C(c1cccc([N+](=O)[O-])c1)N1CCN(c2ccc(/C=C/c3cc(Cl)cc(Cn4ccnc4)c3)cc2)CC1 | 17 nM | 4 nM | ≥ 10000 nM |  |  | 
O=C(c1cccnc1)N1CCN(c2ccc(/C=C/c3cc(Cl)cc(Cn4ccnc4)c3)cc2)CC1 | 26 nM | 4.9 nM | ≥ 10000 nM |  |  | 

The next lines start with the values.

IC50 [1] | IC50 [2] | IC50 [3] | Tmax [4] | bioavailability [5] | F [5] | Compound
86 nM | 73 nM | ≥ 10000 nM |  |  |  | N#CCS(=O)(=O)N1CCN(c2ccc(/C=C/c3cc(F)cc(Cn4ccnc4)c3)cc2)CC1
58 nM | 49 nM | ≥ 10000 nM |  |  |  | CS(=O)(=O)N1CCN(c2ccc(/C=C/c3cc(F)cc(Cn4ccnc4)c3)cc2)CC1
5 nM | 450 nM | 840 nM |  |  |  | CS(=O)(=O)N1CCN(c2ccc(/C=C/c3cc(Cl)cc(-c4ccncc4)c3)cc2)CC1
5 nM | 3500 nM | 1200 nM |  |  |  | Clc1cc(/C=C/c2ccc(N3CCN(C4=NCCO4)CC3)cc2)cc(-c2ccncc2)c1
6.2 nM | 7 nM | ≥ 10000 nM |  |  |  | O=S(=O)(c1c[nH]cn1)N1CCN(c2ccc(/C=C/c3cc(Cl)cc(Cn4ccnc4)c3)cc2)CC1
42 nM | 17 nM | 1000 nM |  |  |  | Fc1cc(/C=C/c2ccc(N3CCN(C4=NCCCO4)CC3)cc2)cc(Cn2ccnc2)c1
 |  |  | 3.33 h | 22.1% |  | O=S(=O)(N1CCN(c2ccc(/C=C/c3cc(F)cc(-c4ccncc4)c3)cc2)CC1)C(F)(F)F
24 nM |  | 540 nM |  |  |  | CCS(=O)(=O)N1CCN(c2ccc(/C=C/c3cc(Cl)cc(Cn4ccnc4)c3)cc2)CC1
42 nM |  |  |  |  |  | CC(=O)N1CCN(c2ccc(/C=C/c3cc(Cl)cc(Cn4ccnc4)c3)cc2)CC1
4.6 to 5 nM | 1200 nM | 430 nM | 3 h |  | 184.21% | CC(=O)N1CCN(c2ccc(/C=C/c3cc(F)cc(-c4ccncc4)c3)cc2)CC1
 | 10000 nM | ≥ 10000 nM |  |  |  | N=C(N)N1CCN(c2ccc(/C=C/c3cc(Cl)cc(-c4ccncc4)c3)cc2)CC1
220 nM | 4800 nM | 1950 nM |  |  |  | CC(=O)N1CCN(c2ccc(/C=C/c3cc(O)cc(-n4ccnc4)c3)cc2)CC1
1200 nM | 1400 nM | ≥ 10000 nM |  |  |  | Oc1cc(/C=C/c2ccc(Br)cc2)cc(-n2ccnc2)c1
21 nM | 4 nM | 1200 nM |  |  |  | N#Cc1cccc(S(=O)(=O)N2CCN(c3ccc(/C=C/c4cc(Cl)cc(Cn5ccnc5)c4)cc3)CC2)c1
